{"source": "paper PMC9282638", "about": "“A Suite of Activity-Based Probes To Dissect the KLK Activome in Drug-Resistant Prostate Cancer” (Journal of the American Chemical Society, 2021)", "key": {"LNCaP-K14 cells [1]": {"test_system": "LNCaP-K14 cells", "test": "Transwell cell migration assay", "format": "cell-based, human", "settings": "1 μM ABP, 24 h; KLK14 expression induced with Dox, 10 nM DHT", "protocol": "Figure 6 Dissecting the KLK activome in LNCaP cells. (A) Structures of fluorescent ABPs 42, 20, and 43 for KLK2, KLK3, and KLK14, respectively. (B) KLK activity profiling by in-gel fluorescence of conditioned media obtained from LNCaP-WT, LNCaP-mK14, and LNCaP-K14 cells following treatment with DHT (10 nM), Dox (100 ng/mL), and the appropriate biotinylated ABP using fluorescent ABPs 20, 42 and 43. See Figure S26 for blot and gel quantification. (C) Assessment of KLK activity inhibition on LNCaP cell migration. LNCaP-K14 cells were cultured in serum-free RPMI media supplemented with 10 nM DHT ± Dox (100 ng/mL) for 24 h. Cells were added to transwell inserts (100 000 cells in 100 μL of serum-free RPMI), and after 4 h the appropriate ABP was added. Cultures were incubated for a further 24 h before the number of migrating cells was quantified. […]\neach library member was 50 μM and the total reaction volume was 50 μL. The excitation wavelength was 355 nm, and the emission wavelength was 460 nm. An amount of 1 μL of each HyCoSuL peptide was added into a well in a 96-well plate containing 24 μL of KLK buffer.\nNext, 25 μL of the active KLK enzyme was added to each well and substrate hydrolysis was recorded in kinetic mode at RT for at least 10 min. The linear portion of each progress curve was used to calculate relative fluorescence units per second (RFUs-1). […] Specificity was calculated by normalizing RFUs-1 to the highest value, which was set at 100 %. […]\n(§1) Determination of kcat/KM: The KLK2 substrate and KLK14 substrate were serially diluted in the appropriate KLK assay buffer and 25 μL was added to the wells of a 96-well plate. Next, 25 μL of KLK2 (1.5 nM) or KLK14 (75 pM) was added to each well containing the substrate and the enzyme-substrate reaction was monitored for at least 10 min. The linear portion of each progress curve was used to calculate relative fluorescence units per second (RFUs-1).\nKM, kcat, and kcat/KM parameters were determined by nonlinear regression in GraphPad Prism 5 (GraphPad Software). […]"}, "LNCaP-K14 cells [2]": {"test_system": "LNCaP-K14 cells", "format": "cell-based, human", "settings": "for cytotoxicity: 10 μM, 96 h time period; for effect on proliferation (cell confluency): Figure S27", "description": "Prior to the establishment of bone metastases circulating PCa cells must first enter the bone microenvironment by migrating across the sinusoidal wall.[54] We have previously shown that increased KLK14 activity drives PCa cell migration and colonization of mineralized bone matrices.[15] However, the specific contributions of the KLK activome (KLK2, KLK3, and KLK14) toward PCa cell migration are yet to be elucidated. […] We then assessed the migratory capacity of LNCaP-K14 cells using a transwell assay (see Figure S28 for standard curve).\nproliferation of LNCaP-K14 cells. Cell confluency was monitored by real-time imaging using\nan Incucyte S3 system (Essen Bioscience).\n(1 picture or pasted object on this page, not shown here)"}, "KLK2": {"biological_target": "T1, KLK2 (Homo sapiens, UniProt P20151)", "T1 construct": "purchased R&D Systems", "T1 sequence (P20151 25-261)": "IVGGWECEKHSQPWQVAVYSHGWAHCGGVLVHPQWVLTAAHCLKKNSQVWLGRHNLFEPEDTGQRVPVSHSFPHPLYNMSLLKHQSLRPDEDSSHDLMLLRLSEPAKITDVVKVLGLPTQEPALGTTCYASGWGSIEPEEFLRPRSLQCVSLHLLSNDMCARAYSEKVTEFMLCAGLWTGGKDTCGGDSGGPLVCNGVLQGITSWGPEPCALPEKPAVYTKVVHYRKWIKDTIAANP", "test": "Determination of kinact/KI, fluorogenic substrate kinetic assay", "format": "biochemical", "settings": "for kinact/KI: mean ± SEM (N = 3)", "description": "1.1 Chemicals and Reagents\nAll chemicals and reagents were purchased from commercial suppliers and used without further purification. Rink Amide resin (100-200 mesh) and 2-Chlorotrityl chloride resin (100-200 mesh, 1% DVB) were obtained from Merck. Natural Fmoc-amino acids were obtained from AGTC Bioproducts Ltd. Unnatural Fmoc-amino acids were obtained from Fluorochem, Alfa Aesar, VWR, Merck, Iris Biotech, Bachem or Sigma Aldrich. Culture media, fetal bovine serum, trypsin, antibiotics and chemicals required for differentiation of osteoprogenitor cells were obtained from Sigma Aldrich, Gibco or Invitrogen. Amicon 3 KDa Centrifugal filter units were obtained from Merck. Recombinant human KLK2 and KLK14 were obtained from R&D Systems and activated using the supplier’s protocol. All remaining chemical reagents were obtained from VWR, Sigma Aldrich or Merck. […]\nFluorescent plate-based enzymatic assays were carried out using an Envision 2104 Multilabel Plate Reader (PerkinElmer) operating in kinetic mode for a minimum of 20 min with excitation/emission […]\nSpecificity […]\nwas calculated by normalizing RFUs-1 to the highest value, which was set at 100 %.\nCalculations were made in GraphPad Prism 5.\nas §1\nKM, kcat, and kcat/KM parameters were determined by nonlinear regression in GraphPad Prism 5 (GraphPad Software). Each experiment was repeated three times and the results are presented as an average ± SEM.\nDetermination of kinact/KI: Under pseudo-first order conditions, a fixed amount of KLK2 (1.5 nM) or KLK14 (37 pM) was incubated with peptidyl-DPP analogue at different concentrations in the presence of 5 µM of substrate. The pseudo first-order rate constant, kobs, was calculated for each probe concentration using non-linear regression analysis in GraphPad Prism 5. The obtained values were plotted against probe concentration to afford the apparent second order rate constant kinact(app)/KI. The absolute value of the second order rate constant was then obtained by adjusting for the substrate competition factor (1 + [S]/Km), where S is the concentration of substrate in the assay and KM is the Michaelis Menten constant for that substrate/enzyme reaction.\n2.5 Cell Migration Assays\nCell migration: The assay was performed as per the manufacturer’s protocol (https://www.corning.com/catalog/cls/documents/protocols/an_Chemotaxis_protocol.pdf).\nBriefly, LNCaP-WT, LNCaP-mK14 and LNCaP-K14 cells were grown to 80% confluency in RPMI media supplemented with 5 % FBS. The media was then aspirated, the cells were washed with 2 mL PBS (3*) and incubated with serum-free RPMI (without phenol red) supplemented with 10 nM DHT ± 100 ng/mL Dox for 24 h. Cells were trypsinized, washed twice with serum-free RPMI and resuspended in serum-free RPMI. 100,000 cells in 100 µL of serum-free RPMI was then added to the transwell inserts placed in a 24-well plate (Corning […]\nFigure S15: KLK2 and KLK14 substrates. (A) Structures (B) Optimal assay conditions for […]\nS19) inhibitors (C) Michaelis-Menten (K M) and rate (kcat) constants for KLK substrates"}, "KLK14": {"biological_target": "T2, KLK14 (Homo sapiens, UniProt Q9P0G3)", "T2 construct": "purchased R&D Systems", "T2 sequence (Q9P0G3 25-251)": "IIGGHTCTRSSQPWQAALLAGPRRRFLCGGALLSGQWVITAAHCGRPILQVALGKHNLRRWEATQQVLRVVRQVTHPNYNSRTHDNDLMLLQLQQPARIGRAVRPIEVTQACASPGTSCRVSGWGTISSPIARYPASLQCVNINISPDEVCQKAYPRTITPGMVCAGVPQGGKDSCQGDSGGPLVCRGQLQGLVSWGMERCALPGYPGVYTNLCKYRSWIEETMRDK", "test": "Determination of kinact/KI, fluorogenic substrate kinetic assay", "format": "biochemical", "settings": "for kinact/KI: mean ± SEM (N = 3)"}, "[3]": {"settings": "KLK14 probe optimization series"}}}
{"smiles": "CCC[C@H](NC(=O)[C@H](CCC(N)=O)NC(=O)[C@H](CC(N)=O)NC(=O)CCCCCNC(=O)CCCC[C@@H]1SC[C@@H]2NC(=O)N[C@@H]21)C(=O)NC(c1ccc(C(N)=O)cc1)P(=O)(Oc1ccccc1)Oc1ccccc1", "note": "(stereo partly shown) [compound 20]", "values": [{"measurement": "effect on number of migrating cells", "setting": "LNCaP-K14 cells [1]", "result": "no significant effect"}, {"measurement": "cytotoxicity", "setting": "LNCaP-K14 cells [2]", "result": "no cytotoxicity"}, {"measurement": "effect on proliferation (cell confluency)", "setting": "LNCaP-K14 cells [2]", "result": "no significant effect"}]}
{"smiles": "CC(C)(C)C(NC(=O)CCCCCNC(=O)CCCCC1SCC2NC(=O)NC21)C(=O)NC(CCN)C(=O)NC(Cc1ccc(O)cc1)C(=O)NC(c1ccc(NC(=N)N)cc1)P(=O)(Oc1ccccc1)Oc1ccccc1", "note": "(stereo not drawn) [compound 31, Tle-Dab-Tyr-Arg]", "values": [{"measurement": "effect on number of migrating cells", "setting": "LNCaP-K14 cells [1]", "result": "no significant effect"}, {"measurement": "selectivity (fold-change)", "setting": "KLK2; KLK2 probe optimization series, KLK2 over KLK14", "result": 33, "unit": "fold"}, {"measurement": "kinact/KI", "setting": "KLK2; KLK2 probe optimization series", "result": "3080 ± 87", "unit": "M⁻¹ s⁻¹"}, {"measurement": "cytotoxicity", "setting": "LNCaP-K14 cells [2]", "result": "no cytotoxicity"}, {"measurement": "effect on proliferation (cell confluency)", "setting": "LNCaP-K14 cells [2]", "result": "no significant effect"}, {"measurement": "kinact/KI", "setting": "KLK14; KLK2 probe optimization series", "result": "94 ± 7", "unit": "M⁻¹ s⁻¹"}]}
{"smiles": "CCC(NC(=O)C(CCN)NC(=O)C(Cc1ccc2ccccc2c1)NC(=O)CCCCCNC(=O)CCCCC1SCC2NC(=O)NC21)C(=O)NC(c1ccc(NC(=N)N)cc1)P(=O)(Oc1ccccc1)Oc1ccccc1", "note": "(stereo not drawn) [compound 39, 2Nal-Dab-Abu-Arg]", "values": [{"measurement": "effect on number of migrating cells", "setting": "LNCaP-K14 cells [1]", "result": "nullified"}, {"measurement": "kinact/KI", "setting": "KLK2; [3]", "result": "204 ± 13", "unit": "M⁻¹ s⁻¹"}, {"measurement": "cytotoxicity", "setting": "LNCaP-K14 cells [2]", "result": "no cytotoxicity"}, {"measurement": "effect on proliferation (cell confluency)", "setting": "LNCaP-K14 cells [2]", "result": "no significant effect"}, {"measurement": "selectivity (fold-change)", "setting": "KLK14; KLK14 probe optimization series, KLK14 over KLK2", "result": 220, "unit": "fold"}, {"measurement": "kinact/KI", "setting": "KLK14; [3]", "result": "44500 ± 1980", "unit": "M⁻¹ s⁻¹"}, {"measurement": "fold higher potency toward KLK14", "setting": "KLK14; relative to compound 32", "result": 80, "unit": "fold"}]}
